Assay results published in patent publication US20240270762A1, “PENICILLIN-BINDING PROTEIN INHIBITORS” (priority 2021, published 2024).
Values after ≈ are worked out from the molar mass of the structure shown. Read-outs that look alike come from different tables or passages of the source.

Tests used:
P. aeruginosa CDC-0090 = assay: microbe, parasite or virus in culture; type: cell-based; details: Pseudomonas aeruginosa, CDC0090, read-out: Minimum inhibitory concentration, P. aeruginosa CDC-0090
N. gonorrhoeae WHO X = assay: Liquid broth MIC in Fastidious broth; details: Neisseria gonorrhoeae
A. baumannii ATCC 19606 = assay: microbe, parasite or virus in culture; type: cell-based; details: Acinetobacter baumannii, ATCC19606, read-out: MIC, A. baumannii ATCC 19606
A. baumannii ATCC 17978 = assay: microbe, parasite or virus in culture; type: cell-based; details: Acinetobacter baumannii, ATCC17978, read-out: MIC, A. baumannii ATCC 17978
N. gonorrhoeae WHO Q = assay: Liquid broth MIC in Fastidious broth; details: Neisseria gonorrhoeae
Method: Liquid broth-based assays were used for antibacterial testing of PBP inhibitors in Neisseria gonorrhoeae. Briefly, cryo-preserved bacterial cultures of clinical strains were streaked for isolation on Chocolate Agar (72 g/L (2×) GC Agar Base (BD #228950) and 2% (2×) Hemoglobin was autoclaved at 121° C. for 20 minutes to sterilize. Once cooled to ˜50° C. the 2×GC Agar Base and 2× Hemoglobin solutions are combined and 1% IsoVitaleX Enrichment (BD #211876) was added to the solution). Strains were incubated at 36° C. and 5% CO2 to allow growth of colonies, 24 hours before inoculum preparation. 2-fold serial dilutions of test compounds were conducted in a 96 well plate with a final volume of 75 μL per well at 2-fold the final desired concentration in Fastidious broth (Remel #R07664). For preparation of assay inoculum, a direct suspension was prepared by aseptically swabbing 10-15 colonies from agar plates into culture tubes containing 2 mL of fresh sterile saline. After the dilution plates were set up, direct suspensions were then diluted in a cuvette containing sterile saline and the optical density was measured at 600 nm. Inocula were diluted such that 75 μL of this culture in Fastidious broth results in a starting bacterial concentration of 5×10^5 CFU/mL when added to the dilution plates. The plates were incubated for ˜24 hours at 36° C. and 5% CO2.

P. aeruginosa CDC-0110 = assay: microbe, parasite or virus in culture; type: cell-based; details: Pseudomonas aeruginosa, CDC0110, read-out: Minimum inhibitory concentration, P. aeruginosa CDC-0110
A. baumannii CDC-0045 = assay: microbe, parasite or virus in culture; type: cell-based; details: Acinetobacter baumannii, CDC0045, read-out: MIC, A. baumannii CDC-0045
P. aeruginosa ATCC 27853 = assay: microbe, parasite or virus in culture; type: cell-based; details: Pseudomonas aeruginosa, ATCC27853, read-out: Minimum inhibitory concentration, P. aeruginosa ATCC 27853
[1] = tested on: B. thailandensis ATCC 700388; assay: microbe, parasite or virus in culture; type: cell-based; details: Burkholderia thailandensis, ATCC700388, read-out: Minimum inhibitory concentration (MIC), B. thailandensis ATCC 700388
[2] = tested on: P. aeruginosa (ΔmexAB-oprM); assay: Broth microdilution MIC in iron-depleted CAMHB (IDM); type: cell-based; details: Pseudomonas aeruginosa; iron-depleted CAMHB (IDM); […]; read-out: Minimum inhibitory concentration, P. aeruginosa ΔmexAB-oprM
A. baumannii CDC-0036 = assay: microbe, parasite or virus in culture; type: cell-based; details: Acinetobacter baumannii, CDC0036, read-out: MIC, A. baumannii CDC-0036
N. gonorrhoeae CDC-0197 = assay: Liquid broth MIC in Fastidious broth; details: Neisseria gonorrhoeae
[3] = tested on: B. humptydooensis ATCC BAA-2767; assay: microbe, parasite or virus in culture; type: cell-based; details: Burkholderia humptydooensis, ATCCBAA2767, read-out: Minimum inhibitory concentration (MIC), B. humptydooensis ATCC BAA-2767
P. aeruginosa ATCC 35151 = assay: microbe, parasite or virus in culture; type: cell-based; details: Pseudomonas aeruginosa, ATCC35151, read-out: Minimum inhibitory concentration, P. aeruginosa ATCC 35151
A. baumannii 1258916 = assay: microbe, parasite or virus in culture; type: cell-based, Acinetobacter baumannii; details: Acinetobacter baumannii, 1258916, read-out: MIC, A. baumannii 1258916
[4] = read-out: Minimum Inhibitory Concentration (MIC), N. gonorrhoeae WHO X
[5] = read-out: Minimum Inhibitory Concentration (MIC), N. gonorrhoeae WHO Q
[6] = CDC0197, read-out: Minimum Inhibitory Concentration (MIC), N. gonorrhoeae CDC-0197

| SMILES | MIC (P. aeruginosa CDC-0090) [mg/L] | MIC (N. gonorrhoeae WHO X; [4]) [mg/L] | MIC (A. baumannii ATCC 19606) [mg/L] | MIC (A. baumannii ATCC 17978) [mg/L] | MIC (N. gonorrhoeae WHO Q; [5]) [mg/L] | MIC (P. aeruginosa CDC-0110) [mg/L] | MIC (A. baumannii CDC-0045) [mg/L] | MIC (P. aeruginosa ATCC 27853) [mg/L] | MIC [1] [mg/L] | MIC [2] [mg/L] | MIC (A. baumannii CDC-0036) [mg/L] | MIC (N. gonorrhoeae CDC-0197; [6]) [mg/L] | MIC [3] [mg/L] | MIC (P. aeruginosa ATCC 35151) [mg/L] | MIC (A. baumannii 1258916) [mg/L] | MIC (N. gonorrhoeae WHO X; read-out: Minimum Inhibitory Concentration, WHO X) [mg/L] | MIC (N. gonorrhoeae WHO Q; read-out: Minimum Inhibitory Concentration, WHO Q) [mg/L] | MIC (N. gonorrhoeae CDC-0197; CDC0197, read-out: Minimum Inhibitory Concentration, CDC-0197) [mg/L] |
| --- | --- | --- | --- | --- | --- | --- | --- | --- | --- | --- | --- | --- | --- | --- | --- | --- | --- | --- |
| O=C(NCCN1CCN(C(=O)NC(C(=O)N[C@H]2Cc3ccc(F)c(C(=O)O)c3OB2O)c2cc(F)c(O)c(O)c2Cl)C(=O)C1=O)c1cccc(O)c1 (stereo partly drawn) [Example 215, (3R)-3-(2-(2-chloro-5-fluoro-3,4-dihydroxyphenyl)-2-(4-(2-(3-hydroxybenzamido)ethyl)-2,3-dioxopiperazine-1-carboxamido)acetamido)-7-fluoro-2-hydroxy-3,4-dihydro-2H-benzo[e][1,2]oxaborinine-8-carboxylic acid] | < 1 | > 64 | < 1 | < 1 | > 64 | < 1 | 8 to 16 (≈ 10.7 to 21.5 µM) | 2 to 4 (≈ 2.68 to 5.36 µM) | 8 to 16 (≈ 10.7 to 21.5 µM) | < 1 | 8 to 16 (≈ 10.7 to 21.5 µM) | 16 to 32 (≈ 21.5 to 42.9 µM) | < 1 | < 1 | 2 to 4 (≈ 2.68 to 5.36 µM) |  |  |  |
| CN(CCN1CCN(C(=O)NC(C(=O)N[C@H]2Cc3ccc(F)c(C(=O)O)c3OB2O)c2cc(F)c(O)c(O)c2Cl)C(=O)C1=O)S(=O)(=O)c1cccc(C(N)=O)c1 (stereo partly drawn) [Example 224, (3R)-3-(2-(4-(2-((3-carbamoyl-N-methylphenyl)sulfonamido)ethyl)-2,3-dioxopiperazine-1-carboxamido)-2-(2-chloro-5-fluoro-3,4-dihydroxyphenyl)acetamido)-7-fluoro-2-hydroxy-3,4-dihydro-2H-benzo[e][1,2]oxaborinine-8-carboxylic acid] | < 1 | > 64 | < 1 | < 1 | > 64 | < 1 | < 1 | 2 to 4 (≈ 2.43 to 4.86 µM) | 2 to 4 (≈ 2.43 to 4.86 µM) | < 1 | 8 to 16 (≈ 9.72 to 19.4 µM) | > 64 | < 1 | < 1 | 2 to 4 (≈ 2.43 to 4.86 µM) |  |  |  |
| O=C(NCCCN1CCN(C(=O)NC(C(=O)N[C@H]2Cc3ccc(F)c(C(=O)O)c3OB2O)c2cc(F)c(O)c(O)c2Cl)C1=O)Nc1cccnc1 (stereo partly drawn) [Example 259, (3R)-3-(2-(2-chloro-5-fluoro-3,4-dihydroxyphenyl)-2-(2-oxo-3-(3-(3-(pyridin-3-yl)ureido)propyl)imidazolidine-1-carboxamido)acetamido)-7-fluoro-2-hydroxy-3,4-dihydro-2H-benzo[e][1,2]oxaborinine-8-carboxylic acid] | < 1 |  | < 1 | < 1 |  | < 1 | < 1 | < 1 | < 1 | < 1 | < 1 |  | < 1 | < 1 | < 1 | > 64 | 16 to 32 (≈ 21.9 to 43.7 µM) | 16 to 32 (≈ 21.9 to 43.7 µM) |
| O=C(CN1CCN(C(=O)NC(C(=O)N[C@H]2Cc3ccc(F)c(C(=O)O)c3OB2O)c2cc(F)c(O)c(O)c2Cl)C(=O)C1=O)Nc1cccc(O)c1 (stereo partly drawn) [Example 231, (3R)-3-(2-(2-chloro-5-fluoro-3,4-dihydroxyphenyl)-2-(4-(2-((3-hydroxyphenyl)amino)-2-oxoethyl)-2,3-dioxopiperazine-1-carboxamido)acetamido)-7-fluoro-2-hydroxy-3,4-dihydro-2H-benzo[e][1,2]oxaborinine-8-carboxylic acid] | 2 to 4 (≈ 2.73 to 5.47 µM) | > 64 | < 1 | < 1 | 16 to 32 (≈ 21.9 to 43.7 µM) | < 1 | 2 to 4 (≈ 2.73 to 5.47 µM) | < 1 | 2 to 4 (≈ 2.73 to 5.47 µM) | < 1 | 2 to 4 (≈ 2.73 to 5.47 µM) | 16 to 32 (≈ 21.9 to 43.7 µM) | 8 to 16 (≈ 10.9 to 21.9 µM) | < 1 | 2 to 4 (≈ 2.73 to 5.47 µM) |  |  |  |
